Where two headings read alike, the source gives them in different places.
Assays:
SARS-CoV-2 [1] = test: APLICOV-PC clinical study in patients hospitalised for COVID-19: efficacy; format: in vivo, human
WNV-NY99 (lineage 1) [2] = format: cell-based, West Nile virus; settings: for Intracellular WNV RNA load (RT-qPCR): Vero-E6 cells
NF-κB = NF-κB transactivation luciferase assay in THP-1 NF-κB-Luc cells; format: cell-based, human; settings: 100 nM plitidepsin, 6 hours; with poly I:C, LPS-B5 or Resiquimod (TLR ligands)
Description: Luminescence was measured in a Perkin-Elmer EnVision reader.

[3] = Stability of plitidepsin drug product and reconstituted solution; format: physicochemical
Description: Plitidepsin will be labelled with the study protocol code, the batch number, the content, the expiry date, the storage conditions, the name of the investigator and the sponsor. The study drug will be labelled in accordance with Annex 13 of the European Good Manufacturing Practices. Plitidepsin should be stored between 2° C. and 8° C. and the vials should be kept in the outer carton to protect them from light. The drug in these conditions is stable for 60 months.
After reconstitution of the 2 mg plitidepsin vial with 4 ml of the solution for reconstitution of macrogolglycerol ricinoleate/ethanol/water for injection, the reconstituted solution should be diluted and used immediately after preparation. If not used immediately, storage times and conditions until use are the responsibility of the user. […] If storage is required before administration, solutions should be stored refrigerated and protected from light and should be used within 24 hours after reconstitution.

alveolar macrophages = test: LPS animal inflammation model: macrophages in bronchoalveolar lavage by flow cytometry; format: in vivo, mouse; settings: mice 1 mg/kg single i.v., LPS 20 µg/kg i.p.
Description: Three hours later, bronchoalveolar lavages were collected.

[4] = Cell biomass (DAPI) in Vero-E6 cells; format: cell-based, African green monkey; settings: African green monkey, Vero-E6 cells, VeroE6 cells, read-out: CC50 based on cell biomass
Description: (§1) Relative infection efficiency was assessed by automated fluorescence microscopy in the green channel and overall cell biomass/well was estimated by nuclear staining with DAPI in the blue channel, as a preliminary assessment of the compound effective doses as well as overall compound cytotoxicity.
(§2) Cells were fixed by addition of a 5X formaldehyde solution to achieve a 4% final concentration for 30 mins at room temperature. Cells were washed with PBS and stained with DAPI (4′,6-diamidino-2-phenylindole) following manufacturer’s recommendations. Relative infection efficiency was estimated by image analysis in an automated microscopy device (Tecan Spark Cyto). Uninfected cells and vehicle-treated controls were included in each plate.

Vero-E6 cells = test: Cell biomass (DAPI) in Vero-E6 cells; format: cell-based, African green monkey; settings: VeroE6 cells, 48 hours
Description: as §1, §2

WNV-NY99 (lineage 1) [5] = settings: Huh-7 cells
SARS-CoV-2 [6] = test: SARS-CoV-2 cytopathic effect in Vero E6 cells (CellTiter-Glo); format: cell-based; settings: Severe acute respiratory syndrome coronavirus 2, Vero C1008, 72 h, 3 days post infection, two experiments with two replicates each, read-out: IC50 viral-induced cytopathic effect (mean and standard deviation)
Description: Vero E6 cells (ATCC CRL-1586) were cultured in Dulbecco’s modified Eagle medium, (DMEM; Lonza) supplemented with 5% fetal calf serum (FCS; EuroClone), 100 U/mL penicillin, 100 µg/mL streptomycin, and 2 mM glutamine (all ThermoFisher Scientific).
Plitidepsin was used at a concentration ranging from 100 µM to 0.0512 nM at ⅕ serial dilutions, and also assayed from 10 µM to 0.5 nM at ⅓ dilutions.
Increasing concentrations of Plitidepsin was added to Vero E6 cells together with 10^1.8 TCID50/mL of SARS-CoV-2, a concentration that achieves a 50% of cytopathic effect. Non-exposed cells were used as negative controls of infection. In order to detect any drug-associated cytotoxic effect, Vero E6 cells were equally cultured in the presence of increasing drug concentrations, but in the absence of virus. Cytopathic or cytotoxic effects of the virus or drugs were measured at 3 days post infection, using the CellTiter-Glo luminescent cell viability assay (Promega). Luminescence was measured in a Fluoroskan Ascent FL luminometer (ThermoFisher Scientific).
Response curves were adjusted to a non-linear fit regression model, calculated with a four-parameter logistic curve with variable slope. […] Statistical differences from 100% were assessed with a one sample t test. […]

SARS-CoV-2 [7] = test: SARS-CoV-2 replication in human stem cell-derived pneumocyte like cells; format: cell-based; settings: 10 nm plitidepsin for 1 hour before infection; 48 hour incubation
Description: Several in vitro experiments aimed at determining the effect of plitidepsin on SARS-CoV-2 were carried out and are disclosed herein. […] In another study, human stem cell-derived pneumocyte like cells were prophylactically exposed to 10 nm plitidepsin for 1 hour and then infected with SARS-CoV-2 (4 × 10^4 plaque forming units). After a 48 hour incubation period, both antiviral and cytotoxic plitidepsin effects were determined.

[8] = target: eEF1A purified from rabbit muscle (Oryctolagus cuniculus, UniProt Q71V39); test: Binding of 14C-plitidepsin to purified eEF1A
[9] = tested on: WNV-GFP (lineage 2; molecular clone WN956)
SARS-CoV-2 [10] = test: SARS-CoV-2 dose-response curve analysis by immunofluorescence in Vero cells
[11] = Pharmacokinetics in patients; format: in vivo; settings: both sexes, plasma, Human (M/F), 0.135 mg/kg (Recommended Dose 5 mg/m2), 3-h intravenous infusion

eEF1A purified from rabbit muscle, sequence (Q71V39 whole entry): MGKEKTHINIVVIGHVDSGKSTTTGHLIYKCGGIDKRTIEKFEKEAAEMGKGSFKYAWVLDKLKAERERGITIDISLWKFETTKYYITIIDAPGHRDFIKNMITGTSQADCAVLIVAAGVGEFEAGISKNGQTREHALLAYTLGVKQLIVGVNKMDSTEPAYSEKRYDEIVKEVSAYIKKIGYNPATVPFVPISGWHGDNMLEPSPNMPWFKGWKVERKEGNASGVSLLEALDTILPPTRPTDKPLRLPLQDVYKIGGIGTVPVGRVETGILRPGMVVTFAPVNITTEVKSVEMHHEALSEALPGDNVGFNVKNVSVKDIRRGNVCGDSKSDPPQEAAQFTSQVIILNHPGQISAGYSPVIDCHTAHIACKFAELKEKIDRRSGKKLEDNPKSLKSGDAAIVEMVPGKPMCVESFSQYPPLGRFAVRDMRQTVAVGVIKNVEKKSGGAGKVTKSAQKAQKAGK

Compound: CC[C@H](C)[C@H]1NC(=O)[C@@H](NC(=O)[C@@H](CC(C)C)N(C)C(=O)[C@@H]2CCCN2C(=O)C(C)=O)[C@@H](C)OC(=O)[C@H](Cc2ccc(OC)cc2)N(C)C(=O)[C@@H]2CCCN2C(=O)[C@H](CC(C)C)NC(=O)[C@@H](C)C(=O)[C@H](C(C)C)OC(=O)C[C@@H]1O [plitidepsin]
- Mean time from baseline until undetectable viral load (SARS-CoV-2 [1]): 11 days
- Mortality from Day 1 to Day 7 (SARS-CoV-2 [1]): 0 n (%)
- Mortality from Day 1 to Day 15 (SARS-CoV-2 [1]): 0 n (%)
- Mortality from Day 1 to Day 31 (SARS-CoV-2 [1]): 2 (4.5) n (%)
- Patients requiring ICU admission from Day 1 to Day 7 (SARS-CoV-2 [1]): 5 (11.4) n (%)
- Patients requiring ICU admission from Day 1 to Day 15 (SARS-CoV-2 [1]): 6 (13.6) n (%)
- Patients requiring ICU admission from Day 1 to Day 31 (SARS-CoV-2 [1]): 6 (13.6) n (%)
- Patients requiring invasive mechanical ventilation and/or ICU admission from Day 1 to Day 7 (SARS-CoV-2 [1]): 5 (11.4) n (%)
- Patients requiring invasive mechanical ventilation and/or ICU admission from Day 1 to Day 15 (SARS-CoV-2 [1]): 6 (13.6) n (%)
- Patients requiring invasive mechanical ventilation and/or ICU admission from Day 1 to Day 31 (SARS-CoV-2 [1]): 6 (13.6) n (%)
- Patients requiring noninvasive mechanical ventilation from Day 1 to Day 7 (SARS-CoV-2 [1]): 4(9.1) n (%)
- Patients requiring noninvasive mechanical ventilation from Day 1 to Day 15 (SARS-CoV-2 [1]): 5 (11.4) n (%)
- Patients requiring noninvasive mechanical ventilation from Day 1 to Day 31 (SARS-CoV-2 [1]): 6 (13.6) n (%)
- Mean change in viral load from baseline to Day 4 (SARS-CoV-2 [1]; 96 h): -1.90 log10 copies/mL
- Mean change in viral load from baseline to Day 7 (SARS-CoV-2 [1]; 168 h): -3.07 log10 copies/mL
- Mean reduction in viral load (SARS-CoV-2 [1]; 168 h): -3.1 log10 copies/mL
- Patients requiring oxygen therapy at Day 7 (SARS-CoV-2 [1]; 168 h): 31 (70.5) n (%)
- Patients discharged from hospital by Day 8 (SARS-CoV-2 [1]; 192 h): 25 (56.8) n (%)
- Mean change in viral load from baseline to Day 15 (SARS-CoV-2 [1]; 360 h): -4.48 log10 copies/mL
- Mean reduction in viral load (SARS-CoV-2 [1]; 360 h): -4.5 log10 copies/mL
- Patients discharged from hospital by Day 15 (SARS-CoV-2 [1]; 360 h): 36 (81.8) n (%)
- Patients requiring oxygen therapy at Day 15 (SARS-CoV-2 [1]; 360 h): 9 (20.5) n (%)
- Reduction in viral load (SARS-CoV-2 [1]; 360 h): -3.0 log
- Mean change in viral load from baseline to Day 31 (SARS-CoV-2 [1]; 744 h): -5.27 log10 copies/mL
- Patients discharged from hospital by Day 31 (SARS-CoV-2 [1]; 744 h): 40 (90.9) n (%)
- Patients requiring oxygen therapy at Day 31 (SARS-CoV-2 [1]; 744 h): 3 (6.8) n (%)
- Reduction of extracellular infectivity titers (WNV-NY99 (lineage 1) [2]; 45 nM, VeroE6 cells, 48 hours): > 3 orders of magnitude
- Intracellular WNV RNA load (RT-qPCR) (WNV-NY99 (lineage 1) [2]; 5 and 1.5 nM): not distinguishable from those in the control
- Intracellular WNV RNA load (RT-qPCR) (WNV-NY99 (lineage 1) [2]; 15 and 45 nM): significantly decreased in a dose-dependent manner
- NF-κB transactivation (luciferase activity) (NF-κB): clearly inhibited the production of luciferase
- Physical, chemical and microbiological stability of reconstituted concentrated solution ([3]; original vial under indoor light at room temperature): 6 hours
- Physical, chemical and microbiological stability of reconstituted concentrated solution ([3]; refrigerated conditions (5° C.±3° C.)): 24 hours
- Stability of the drug (vials) ([3]; stored between 2° C. and 8° C., protected from light): 60 months
- Macrophages in bronchoalveolar lavage (alveolar macrophages): decrease the percentage of macrophages presents on bronchoalveolar lavage without cytotoxic effects
- CC50 at 48 h [4]: 2330 nM
- Concentration up to which cell number remained unchanged (Vero-E6 cells): up to 36 nM
- Intracellular WNV RNA load (RT-qPCR) (WNV-NY99 (lineage 1) [5]; 15 nM): marked reduction in viral load
- Total cellular RNA recovery (WNV-NY99 (lineage 1) [5]; 45 nM): no RNA could be recovered
- Reduction of extracellular infectivity titers (WNV-NY99 (lineage 1) [5]; 45 nM, 48 hours): > 3 orders of magnitude
- IC50 (SARS-CoV-2 [6]): 60 ± 20 nM
- SARS-CoV-2 replication (SARS-CoV-2 [7]): completely eliminated replication of SARS-CoV-2
- Binding affinity to eEF1A [8]: high affinity
- Rate of dissociation from eEF1A [8]: low rate of dissociation
- Concentration with antiviral activity in the absence of measurable interference with cell viability (p<0.05) ([9]; Vero-E6 cells): 7.2 nM
- Therapeutic index (CC50/EC50) ([9]; VeroE6 cells): 475
- Concentration reaching background fluorescence levels ([9]; VeroE6 cells, 48 hours): ≥ 36 nM
- SI (SARS-CoV-2 [10]): 49.95-129.92
- IC50 (SARS-CoV-2 [10]; read-out: IC50 inhibition of virus infection, Vero cells, MOI 0.0125, 24 hpi, three repeats): 3.3 to 3.9 nM
- AUC(0-inf) [11]: 256 ng·h/mL
- Cmax [11]: 29.1 ng/mL
- clearance [11]: 11.7 to 15 mL/min/kg
- Vd ([11]; read-out: Vdss): 29 to 33 L/kg
- half-life ([11]; read-out: t½): 20 to 80 h
